Patent US20130040882A1, “USE OF FIBROBLAST GROWTH FACTOR FRAGMENTS” (NOVARTIS AG, priority 2003, published 2013)
Read-outs that look alike come from different tables or passages of the source.

System: transcript levels in tissues (GH/IGF and glucagon/insulin axes, SSTR signalling)
Format: in vivo, cynomolgus monkeys
[1] = RNA expression fold change, brown fat
[2] = RNA expression fold change, pancreas
[3] = RNA expression fold change, pituitary

cyclo[4-(NH2—C2H4—NH—CO—O)Pro-Phg-DTrp-Lys-Tyr(4-Bzl)-Phe] [SOM230]
Gene expression (AvgDiff): IGF-1 (BROWN FAT): 389 | Gene expression (AvgDiff): IGFBP 4 (BROWN FAT): 763 | Gene expression (AvgDiff): IRS 2 (BROWN FAT): 146 | Gene expression (AvgDiff): SSTR3 (BROWN FAT): 194 | Gene expression (AvgDiff): IGF-1 (PANCREAS): 89 | Gene expression (AvgDiff): SSTR2 (PANCREAS): 156 | Gene expression (AvgDiff): GR (PITUITARY): 109 | Gene expression (AvgDiff): IGF-2 (PITUITARY): 70 | Gene expression (AvgDiff): IGFBP, acid labile subunit (PITUITARY): 83 | Gene expression (AvgDiff): SSTR3 (PITUITARY): 57 | Actin related protein 2/3 complex, subunit 1A (41 kD) ↓ [1]: (41 kD) ↓ x2.5 | Adrenergic, β-3-, receptor ↑ [1]: receptor ↑ x2.5 | Apotosis-associated tyrosine kinase ↑ [1]: tyrosine kinase ↑ x3.5 | CD2 antigen (cytoplasmic tail)-binding protein 2 ↑ [1]: protein 2 ↑ x2.5 | CSF 1 (macrophage) ↓ [1]: ↓ x2 | CSF 3 receptor (granulocyte) ↑ [1]: (granulocyte) ↑ x3 | Ca++ channel, voltage dependent, α 1H subunit ↑ [1]: ↑ x3 | Cadherin 5, VE-cadherin (vascular epithelium) ↑ [1]: (vascular epithelium) ↑ x3 | Cadherin 13, H-cadherin (heart) ↓ [1]: (heart) ↓ x2 | Cadherin F1B1 ↓ [1]: Cadherin F1B1 ↓ x4 | Calcium/calmodulin-dependent protein kinase I ↓ [1]: kinase I ↓ x3.5 | Capping protein (actin filament), gelsolin-like ↓ [1]: ↓ x2.5 | Coagulation factor XIIIAI subunit precursor ↓ [1]: ↓ x5 | Cyclin T2 ↑ [1]: Cyclin T2 ↑ x2.5 | Dopamine receptor D3 ↑ [1]: x2.5 | Dual specificity PP MKP-5 ↑ [1]: MKP-5 ↑ x2.5 | EGF receptor pathway substrate 15 ↓ [1]: substrate 15 ↓ x2 | Endothelial cell GF 1 (platelet derived) ↓ [1]: (platelet derived) ↓ x2 | Endothelial differentiation, sphingolipid G-protein-coupled receptor, 5 ↑ [1]: coupled receptor, 5 ↑ x2.5 | FSHR ↑ [1]: FSHR ↑ x2.5 | Fms-related tyrosine kinase 1 (VEGF/vascular permeability factor receptor) ↓ [1]: receptor) ↓ x4.5 | Follistatin-like 3 glycoprotein ↑ [1]: glycoprotein ↑ x3 | G1 to S phase transition ↓ [1]: ↓ x1.5 | G protein-activated inwardly rectifying K+ channel ↑ [1]: channel ↑ x3.5 | G protein-coupled receptor 1 ↓ [1]: receptor 1 ↓ x2.5 | G α inhibiting activity polypeptide 3 interacting protein ↓ [1]: protein ↓ x5 | GLUR, metabotropic 1 ↑ [1]: ↑ x2 | Guanine nucleotide binding protein (G protein), β polypeptide 3 ↑ [1]: ↑ x2.5 | IFN induced transmembrane protein 1 ↑ [1]: ↑ x2.5 | IFN γ-inducible protein 30 (IP30) ↓ [1]: 30 (IP30) ↓ x3.5 | IGF-1 ↓ [1]: IGF-1 ↓ x1.5 | IGF-binding protein 4 ↓ [1]: ↓ x2 | IL 3 (CSF, multiple) ↑ [1]: ↑ x2 | IL 5R, α ↑ [1]: IL 5R, α↑ x2.5 | IL 7R precursor ↑ [1]: IL 7R precursor ↑ x2 | IRS (insulin receptor substrate) 2 ↑ [1]: substrate) 2 ↑ x2.5 | Neuroblastoma apoptosis-related RNA bindingprotein ↓ [1]: bindingprotein ↓ x3 | Neuroblastoma ↓ [1]: Neuroblastoma ↓ x2.5 | Oxytocin, prepro-(neurophysin I) ↑ [1]: (neurophysin I) ↑ x2.5 | PCNA ↓ [1]: PCNA ↓ x2.5 | PI glycan, class F ↓ [1]: PI glycan, class F ↓ x2 | PI glycan, class L ↑ [1]: PI glycan, class L ↑ x3.5 | PI-3-kinase. regulatory subunit, polypeptide 2 (p85 β) ↓ [1]: (p85 β) ↓ x3.5 | PLC β4 ↑ [1]: PLC β4 ↑ x2 | PP 2, regulatory subunit B (B56), γ isoform ↓ [1]: B (B56), γ isoform ↓ x1.5 | PP 5, catalytic subunit ↑ [1]: ↑ x2.5 | Pentaxin-related gene, rapidly induced by IL-1 ↓ [1]: ↓ x7.5 | T3 receptor ↑ [1]: T3 receptor ↑ x2 | TGF β3 ↑ [1]: TGF β3 ↑ x2.5 | TGF β-activated kinase-binding protein 1 ↑ [1]: binding protein 1 ↑ x2.5 | THR interactor 10 ↓ [1]: THR interactor 10 ↓ x3 | THR interactor 12 ↓ [1]: ↓ x1.5 | TNF type 1 receptor associated protein ↓ [1]: associated protein ↓ x2 | VGF nerve growth factor inducible ↑ [1]: factor inducible ↑ x2 | BCL2/adenovirus E1B 19 kD-intracting protein 1, isoform BNIP1-a ↓ [2]: BNIP1-a ↓ x1.5 | CRHR 1 ↓ [2]: CRHR 1 ↓ x2 | Ca++ channel, voltage dependent, α 1F subunit ↓ [2]: ↓ x4.5 | Cdki 1C ↑ [2]: Cdki 1C ↑ x2 | Chymotrypsin-like ↑ [2]: ↑ x3.5 | Cyclin D1 ↑ [2]: Cyclin D1 ↑ x2 | Cyclin T2 ↓ [2]: Cyclin T2 ↓ x2 | G-CSF protein ↓ [2]: G-CSF protein ↓ x2 | GLUR precursor, flip isoform ↑ [2]: flip isoform ↑ x3 | Gastrin-releasing peptide receptor ↓ [2]: peptide receptor ↓ x5 | IFN regulatory factor 3 ↑ [2]: factor 3 ↑ x5 | IGF-1 ↑ [2]: IGF-1 ↑ x4.5 | IL 1 receptor antagonist ↓ [2]: antagonist↓ x2 | IP-1-phosphatase ↑ [2]: ↑ x2.5 | Integrin α2b precursor ↑ [2]: precursor ↑ x1.5 | K+ voltage-gated channel, KQT-like subfamily, member3 ↓ [2]: ↓ x2.5 | Na+ channel, voltage-gated, type I, β polypeptide ↑ [2]: β polypeptide ↑ x2 | Neuroblastoma apoptosis-related RNA bindingprotein ↓ [2]: ↓ x3 | PDGFR α ↑ [2]: PDGFR α ↑ x2.5 | PDGFR, α polypeptide ↑ [2]: α polypeptide ↑ x1.5 | PI-4-kinase, catalytic, α polypeptide ↑ [2]: α polypeptide ↑ x1.5 | PL A2, group IVC (cytosolic, calcium-independent) ↑ [2]: independent) ↑ x1.5 | Phosphotyrosine independent ligand p62B for the Lck SH2 domain B-cell isoform ↓ [2]: isoform ↓ x2 | Prostacyclin synthase ↑ [2]: ↑ x2 | SSTR2 ↓ [2]: SSTR2 ↓ x1.5 | Smad 3 ↓ [2]: Smad 3 ↓ x1.5 | THR binding protein ↓ [2]: ↓ x2 | THR interactor 10 ↑ [2]: ↑ x2.5 | Thrombospondin 2 ↑ [2]: ↑ x3.5 | 1-PI-4-phosphate 5-kinase isoform C ↓ [3]: kinase isoform C ↓ x1.5 | ANP (atrial natriuretic peptide precursor B) ↑ [3]: peptide precursor B) ↑ x2 | ATP(GTP)-binding protein ↑ [3]: protein ↑ x1.5 | ATPase, Ca++ transporting cardiac muscle, slow twitch 2 ↑ [3]: ↑ x1.5 | ATPase, H+/K+ exchanging, α polypeptide ↓ [3]: ↓ x5 | ATPase, Na+/K+ transporting, α2(+) polypeptide ↑ [3]: polypeptide ↑ x2.5 | ATPase, Na+/K+ transporting, β3 polypeptide ↑ [3]: polypeptide ↑ x2.5 | Adrenomedullin ↑ [3]: Adrenomedullin ↑ x2.5 | Arg PTK-binding protein ↓ [3]: protein ↓ x2.5 | BCL2-antagonist of cell death ↑ [3]: death ↑ x2 | BCL2-associated athanogene ↑ [3]: athanogene ↑ x2 | BCL2/adenovirus E1B 19 kD-interacting protein 3 ↑ [3]: ↑ x1.5 | Bax γ ↑ [3]: Bax γ ↑ x1.5 | Brain cannabinoid receptor 1 ↑ [3]: receptor 1 ↑ x2 | Butyrate response factor 2 (EGF-response factor 2) ↑ [3]: ↑ x3 | CC chemokines STCP-1 ↑ [3]: ↑ x1.5 | CD36 antigen ↓ [3]: CD36 antigen ↓ x2 | Calcium/calmodulin-dependent protein kinase I ↑ [3]: kinase I ↑ x2.5 | Catenin (cadherin-associated protein), α1 (102 kD) ↓ [3]: α1 (102 kD) ↓ x1.5 | Cdki2C (p18, inhibits CDK4) ↑ [3]: CDK4) ↑ x2 | Cdki2D (p19, inhibits CDK4) ↑ [3]: CDK4) ↑ x1.5 | Cell division cycle 25B ↑ [3]: ↑ x5 | Cholecystokinin receptor ↓ [3]: receptor ↓ x4.5 | Cholinergic receptor, muscarinic 3 ↓ [3]: muscarinic 3 ↓ x3 | Cholinergic receptor, nicotinic, β polypeptide 4 ↓ [3]: β polypeptide 4 ↓ x2
